What all share (format): biochemical
In assay [1] the target is T1, SERCA2a (cardiac sarcoplasmic reticulum Ca2+-ATPase) (Sus scrofa, UniProt P11607).
T1 construct: gene ATP2A2; native SERCA2a in enriched pig cardiac SR microsomes
The assay can be described thus: NADH-coupled ATPase assay (activation; bell-shaped curve, aggregation suspected at high concentration). The source says: NADH-coupled ATPase assay (activation; bell-shaped curve, aggregation suspected at high concentration) on SERCA2a (cardiac sarcoplasmic reticulum Ca2+-ATPase) | CP-154526 also activates SERCA2a in the high nM to low µM range, with an observed maximal increase in Vmax

The target in assay [2] is T1, SERCA2a (cardiac sarcoplasmic reticulum Ca2+-ATPase). The assay can be described thus: NADH-coupled ATPase assay, ten-point concentration-response (activation).
The target in the next assay is T2, Na+/K+-ATPase NKA-α1 (Sus scrofa, UniProt P05024).
T2 construct: gene ATP1A1
The assay can be described thus: ATPase activity assay.

T1 sequence (P11607 1-997 isoform P11607-2): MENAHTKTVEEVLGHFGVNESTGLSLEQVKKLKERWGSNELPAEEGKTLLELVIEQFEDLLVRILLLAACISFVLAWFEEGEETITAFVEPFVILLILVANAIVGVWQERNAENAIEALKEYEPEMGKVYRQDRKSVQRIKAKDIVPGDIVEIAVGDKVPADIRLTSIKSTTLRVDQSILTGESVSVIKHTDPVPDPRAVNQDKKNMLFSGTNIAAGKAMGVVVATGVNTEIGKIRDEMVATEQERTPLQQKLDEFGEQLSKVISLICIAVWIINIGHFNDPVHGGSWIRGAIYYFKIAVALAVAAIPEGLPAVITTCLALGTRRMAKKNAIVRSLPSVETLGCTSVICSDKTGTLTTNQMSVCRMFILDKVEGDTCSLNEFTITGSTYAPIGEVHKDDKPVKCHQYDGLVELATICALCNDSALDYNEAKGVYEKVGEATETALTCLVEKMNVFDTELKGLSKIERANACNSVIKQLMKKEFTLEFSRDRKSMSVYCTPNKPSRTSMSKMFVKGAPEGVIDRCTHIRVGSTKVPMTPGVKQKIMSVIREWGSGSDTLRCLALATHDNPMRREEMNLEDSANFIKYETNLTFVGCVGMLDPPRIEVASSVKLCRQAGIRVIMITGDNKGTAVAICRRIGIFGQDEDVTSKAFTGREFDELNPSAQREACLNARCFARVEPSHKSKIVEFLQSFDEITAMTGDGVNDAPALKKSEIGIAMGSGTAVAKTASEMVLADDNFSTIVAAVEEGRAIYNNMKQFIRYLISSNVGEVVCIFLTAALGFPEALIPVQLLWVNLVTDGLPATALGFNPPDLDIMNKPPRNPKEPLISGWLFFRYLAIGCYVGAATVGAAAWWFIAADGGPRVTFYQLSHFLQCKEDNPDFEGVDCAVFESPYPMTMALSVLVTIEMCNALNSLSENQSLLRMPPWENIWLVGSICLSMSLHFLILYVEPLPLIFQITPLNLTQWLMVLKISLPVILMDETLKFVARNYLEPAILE

Take `CCCCN(CC)c1nc(C)nc2c1c(C)cn2-c1c(C)cc(C)cc1C` [CP-154526, N-butyl-N-ethyl-2,5-dimethyl-7-(2,4,6-trimethylphenyl)pyrrolo[2,3-d]pyrimidin-4-amine]: in assay [1], the “NADH-coupled ATPase assay (activation); bell-shaped curve, aggregation suspected” value was 28% maximal increase in Vmax at 2.5.
In assay [2], `Cc1ccc2cccc(NC(=O)c3ccc(OC(C)C)cc3)c2n1` [CDN1163, N-(2-methylquinolin-8-yl)-4-propan-2-yloxybenzamide] came in with a concentration for a half-maximal effect (EC50) of 2.3 µM.
The compound `C[C@]12CC/C(=N\OCCN)C[C@@H]1C(=O)C[C@@H]1[C@@H]2CC[C@]2(C)C(=O)CC[C@@H]12` [istaroxime, (3E,5S,8R,9S,10R,13S,14S)-3-(2-aminoethoxyimino)-10,13-dimethyl-1,2,4,5,7,8,9,11,12,14,15,16-dodecahydrocyclopenta[a]phenanthrene-6,17-dione] had a half-maximal inhibitory concentration (IC50) at Na+/K+-ATPase NKA-α1 of 0.47 µM.

The term EC50 denotes the concentration needed to bring the measured effect to its halfway point. Lower therefore signals higher potency in that assay. The term IC50 denotes the concentration that inhibits the measured activity by half. Read a low IC50 as higher potency.
